Data: patent publication US7365211B2, “Heterocyclic GABAA subtype selective receptor modulators” (Roche Palo Alto LLC, priority 2003, dated 2008)
Several values for one entry are separate records, joined by “and”; a condition that tells them apart may be missing. Equal values may be shown once. Where a name gives a salt, the structure may show the parent alone.

Legend:
GABAA α1β2γ2 = molecular target: T1, GABAA α1β2γ2 (Homo sapiens, UniProt P14867+P18507+P47870); assay: 35S-TBPS binding assay (competition), HEK293 membranes with GABAA α1β2γ2 construct; settings: 35S-TBPS (5 nM) competition, GABA 1 μM, 2 hours at room temperature, read-out: pIC50 α1β2γ2 (converted)
T1 construct: expressed in transfected cells; host or cells: HEK293
Protocol: (§1) The binding assay is based on the assay reported by K. Gee et al., Eur. J. Pharmacol. 1987 136:419-423.
(§2) Homogenate preparation: Membrane preparations of HEK293 cells containing either GABAA α1β2γ2 or GABAA α2β3γ2 constructs were performed according to a modified procedure previously described by Gee et al. (supra). Whole HEK 293 cells in D-PBS (calcium/magnesium free) buffer adjusted to pH 7.4 were centrifuged at 7,280×g for 20 m. After discarding the supernatant, the pellet was resuspended in the buffer and centrifuged at 1,820×g for 10 m. Afterwards, the supernatant was discarded and the pellet resuspended in ice-cold preparation buffer (50 mM Tris HCl pH 7.4, 4° C. and 150 mM KCl), homogenized for 30 sec using a Brinkmann Polytron PT3000 (setting 6) and centrifuged at 48,000×g for 30 m at 4° C. The centrifugation and homogenization procedure was repeated two more times for a total of 3 times before resuspending the membranes at a final protein concentration of 0.5 mg/mL. Aliquots (30 mL) of the final membrane preparation were then centrifuged at 48,000×g for 30 m, and the resulting pellets were stored at −80° C. until required.
(§3) 35S-TBPS binding assay. Membrane pellets containing either GABAA α1β2γ2 or GABAA α2β3γ2 constructs were thawed on ice, resuspended in 10 mL of 50 mM Tris HCl pH 7.4, 4° C. and 150 mM KCl and centrifuged at 48,000×g, 30 m at 4° C. After discarding the supernatant, the pellet was resuspended in 30 mL incubation buffer (50 mM Tris HCl pH 7.4, 25° C. and 150 mM KCl) at approximately 0.5 mg/mL protein concentration. In ^35S-TBPS competition studies, HEK293 membranes were incubated with ^35S-TBPS (5 nM final) and GABA (1 μM) in the absence or presence of competitor at concentrations ranging from 0.01 nM to 10 μM in 125 μL incubation buffer for 2 hours at room temperature (˜22° C.). Non-specific binding was assayed with picrotoxin (100 μM final concentration). […] Measurement of bound radioactivity was performed using a Packard Microplate 96 well topcount scintillation counter. […]

GABAA α2β3γ2 = molecular target: T2, GABAA α2β3γ2 (Homo sapiens, UniProt P18507+P28472+P47869); assay: 35S-TBPS binding assay (competition), HEK293 membranes with GABAA α2β3γ2 construct; settings: 35S-TBPS (5 nM) competition, GABA 1 μM, 2 hours at room temperature, read-out: pIC50 α2β3γ2 (converted)
T2 construct: expressed in transfected cells; host or cells: HEK293
Protocol: as §1, §2, §3

SMILES | melting point | IC50 (GABAA α1β2γ2) [nM] | IC50 (GABAA α2β3γ2) [nM]
Cl.Cn1cc2cccc(-c3ccc(Cl)cc3Cl)c2n1 | 133 to 147 °C | – | –
CC/C=C(\CCC)c1c2cccc(-c3ccc(Cl)cc3Cl)c2nn1C.Cl | 148 to 150 °C | – | –
Cl.Cn1cc2ccnc(-c3ccc(Cl)cc3Cl)c2n1 | 190.9 to 195.5 °C | – | –
CCCN(CCC)c1c2cccc(-c3ccc(Cl)cc3Cl)c2nn1C.Cl | 139 to 140 °C | – | –
COc1ccc(-c2cccc3c(N(C)C)n(C)nc23)c(C)c1.Cl | 166 to 167 °C | – | –
CNCc1c2cccc(-c3ccc(Cl)cc3Cl)c2nn1C.Cl | 211.1 to 213 °C | – | –
Cc1cc(C)c(-c2cccc3c(N(C)C)n(C)nc23)c(C)c1.Cl | 169.9 to 171.9 °C | – | –
CC(=O)N(C)Cc1c2cccc(-c3ccc(Cl)cc3Cl)c2nn1C.Cl | 146.2 to 147.8 °C | – | –
Cl.Cn1nc2c(-c3ccc(Cl)cc3Cl)cccc2c1CNN | 172.5 to 176 °C | – | –
COC(=O)NCc1c2cccc(-c3ccc(Cl)cc3Cl)c2nn1C.Cl | 146.3 to 148.6 °C | – | –
Cn1nc2c(-c3ccc(Cl)cc3Cl)cccc2c1COC(N)=O | 184 to 185.5 °C | – | –
Cc1cc(C)c(-c2cccc3cn(C)nc23)c(C)c1 [A5, 2-Methyl-7-(2,4,6-trimethyl-phenyl)-2H-indazole] | 180 to 182 °C | – | –
Cc1cc(C#N)ccc1-c1cccc2cn(C)nc12 [A6, 3-Methyl-4-(2-methyl-2H-indazol-7-yl)-benzonitrile] | 101 to 105 °C | – | –
Cc1c2cccc(-c3ccc(Cl)cc3Cl)c2nn1C [A14, 7-(2,4-Dichloro-phenyl)-2,3-dimethyl-2H-indazole; hydrochloride] | – | 295 | 30.9
C=Cc1c2cccc(-c3ccc(Cl)cc3Cl)c2nn1C [A17, 7-(2,4-Dichloro-phenyl)-2-methyl-3-vinyl-2H-indazole] | – | 1170 | 26.3
C=Cc1c2cccc(-c3c(C)cc(C)cc3C)c2nn1C [A18, 2-Methyl-7-(2,4,6-trimethyl-phenyl)-3-vinyl-2H-indazole] | 84.9 to 95.4 °C and 85 to 95 °C | – | –
C#Cc1c2cccc(-c3ccc(Cl)cc3Cl)c2nn1C [A20, 7-(2,4-Dichloro-phenyl)-3-ethynyl-2-methyl-2H-indazole] | 129.9 to 130.9 °C | – | –
CO/N=C\c1c2cccc(-c3ccc(Cl)cc3Cl)c2nn1C [A22, 7-(2,4-Dichloro-phenyl)-2-methyl-2H-indazole-3-carbaldehyde O-methyl-oxime] | 159.2 to 160.5 °C | – | –

SMILES | melting point | IC50 (GABAA α1β2γ2) [nM] | IC50 (GABAA α2β3γ2) [nM]
Cn1nc2c(-c3ccc(Cl)cc3Cl)cccc2c1Br [A27, 3-Bromo-7-(2,4-dichloro-phenyl)-2-methyl-2H-indazole] | 137 to 139 °C | 575 | 13.5
Cn1nc2c(-c3ccc(Cl)cc3Cl)cccc2c1C#N [A29, 7-(2,4-Dichloro-phenyl)-2-methyl-2H-indazole-3-carbonitrile] | 137 to 139 °C | – | –
Cn1nc2c(-c3ncc(Cl)cc3Cl)cccc2c1Br [A32, 3-Bromo-7-(3,5-dichloro-pyridin-2-yl)-2-methyl-2H-indazole] | 154.5 to 156.2 °C | – | –
Cn1cc2cncc(-c3ccc(Cl)cc3Cl)c2n1 [A34, 7-(2,4-Dichloro-phenyl)-2-methyl-2H-pyrazolo[4,3-c]pyridine] | 153.9 to 155.3 °C | – | –
Cn1cc2nccc(-c3ccc(Cl)cc3Cl)c2n1 [A35, 7-(2,4-Dichloro-phenyl)-2-methyl-2H-pyrazolo[4,3-b]pyridine] | 160.5 to 162.8 °C | – | –
Cn1nc2c(-c3ccc(Cl)cc3Cl)cccc2c1CNC(=O)N1CCOCC1 [C11, Morpholine-4-carboxylic acid [7-(2,4-dichloro-phenyl)-2-methyl-2H-indazol-3-ylmethyl]-amide] | 98.8 to 104.5 °C | – | –
CN(C)C(=O)NCc1c2cccc(-c3ccc(Cl)cc3Cl)c2nn1C [C13, 3-[7-(2,4-Dichloro-phenyl)-2-methyl-2H-indazol-3-ylmethyl]-1,1-dimethyl-urea] | 101.9 to 105.1 °C | – | –
CN(C)C(=O)Nc1c2cccc(-c3ccc(Cl)cc3Cl)c2nn1C [C15, 3-[7-(2,4-Dichloro-phenyl)-2-methyl-2H-indazol-3-yl]-1,1-dimethyl-urea] | 123.3 to 126.3 °C | – | –
Cn1nc2c(-c3ccc(Cl)cc3Cl)cccc2c1S(N)(=O)=O [D3, 7-(2,4-Dichloro-phenyl)-2-methyl-2H-indazole-3-sulfonic acid amide] | 170.7 to 173.6 °C | – | –
Cn1nc2c(-c3ccc(Cl)cc3Cl)cccc2c1S(=O)(=O)CCO [D5, 2-[7-(2,4-Dichloro-phenyl)-2-methyl-2H-indazole-3-sulfonyl]-ethanol] | 157.8 to 161.7 °C | – | –
Cn1nc2c(-c3ccc(Cl)cc3Cl)cccc2c1NS(C)(=O)=O [D15, N-[7-(2,4-Dichloro-phenyl)-2-methyl-2H-indazol-3-yl]-methanesulfonamide] | 171.3 to 173.2 °C | – | –
Cn1nc2c(-c3ccc(Cl)cc3Cl)cccc2c1S(C)(=O)=O [D-2, 3-Methanesulfonyl-2-methyl-7-(2,4-dichloro-phenyl)-2H-indazole] | 182.1 to 183.4 °C | – | –
Cc1cc(C)c(-c2cccc3c(C(C)O)n(C)nc23)c(C)c1 (stereo not drawn) [E1, 1-[2-Methyl-7-(2,4,6-trimethyl-phenyl)-2H-indazol-3-yl]-ethanol] | 246 to 247 °C | – | –
COCc1c2cccc(-c3ccc(Cl)cc3Cl)c2nn1C [E3, 7-(2,4-Dichloro-phenyl)-3-methoxymethyl-2-methyl-2H-indazole] | 119 to 120.9 °C | – | –
Cn1nc2c(-c3ccc(Cl)cc3Cl)cccc2c1CO [E4] | 197.3 to 201.2 °C | – | –
CC(=O)OCc1c2cccc(-c3ccc(Cl)cc3Cl)c2nn1C [E5, Acetic acid [7-(2,4-dichloro-phenyl)-2-methyl-2H-indazol-3-yl]-methyl ester] | 131.7 to 135.2 °C | – | –
CN(C)C(=O)OCc1c2cccc(-c3ccc(Cl)cc3Cl)c2nn1C [E6, Dimethyl-carbamic acid 7-(2,4-dichloro-phenyl)-2-methyl-2H-indazol-3-ylmethyl ester] | 125.2 to 128 °C | – | –
